Tests used:
[1] = tested on: HIV-1NL4-3; test: HIV-1 infectivity in TZM-bl cells (β-gal activity); type: cell-based; settings: Human immunodeficiency virus 1, TZM-bl, 48 h, read-out: EC50 (β-gal)
Method: (C) TZM-bl cells were infected with the HIV-1NL4-3 strain at an MOI of 1 upon treatment of compounds. At 48 h after infection, the viral infectivity and cell viability were determined as described above (Fig. 1). […] (E) TZM-bl cells were infected with the HIV-1NL4-3 at an MOI of 1 upon compound 13. At 48 h after infection, the β-gal activity indicating viral infectivity was determined using the β-gal Enzyme Assay kit. […] (C and E) The dose-response curves show the relative activity compared with that of the DMSO vehicle (mean ± SD; n = 3).
The TZM-bl cells (also referred to as JC53BL-13) expressing human CD4, CXCR4, and CCR5 carrying the F-Luc and lacZ genes downstream of the HIV-1 LTR promoter ([60]) were used to determine the inhibitory effect of the compounds on HIV-1 infection, as previously described ([11], [12], [61]). In brief, 1 × 10^4 cells were cultured in 96-well plates for 24 h and subsequently treated with compounds at the indicated concentrations. […] After 48 h, the inhibitory effect of the compounds was determined using a Bright Glo luciferase assay kit (Promega) or β-Galactosidase Enzyme Assay kit (Promega). […] Cell viability was determined using the resazurin-based PrestoBlue Cell Viability Reagent (Thermo Fisher Scientific, Waltham, MA, USA) following the manufacturer’s instructions.

[2] = target: T1, HIV-1 integrase (Human immunodeficiency virus type 1 group M subtype B, UniProt P04585); test: In vitro integrase assay; type: biochemical; settings: 10 µM
T1 construct: purchased XpressBio
Method: Fig 5 (A) Time-of-addition assay. […] Subsequently, the cells were treated with the compounds at the indicated time points (0, 1, 2, 4, 6, 8, 10, 12, 24, 30, 36, 42, and 48 h) after HIV-1 infection. The final concentrations of compounds are described in Materials and Methods. Viral activity according to the timing of drug addition was measured as F-Luc activity at 54 h after infection. The relative activities are represented as the mean ± SD (n = 3) compared with the activity observed 54 h post-infection. The relative time frames associated with each HIV-1 infection step are defined based on the time frame of susceptibility to the drug that blocks that particular infection step. […] At 16 h after infection, the viral reverse transcription (RT) product (viral cDNA) level was determined by quantitative real-time PCR (RT-qPCR) using gag and 18S rRNA primer sets and represented as the mean ± SD (n = 3) normalized against the amount of the 18S rRNA compared with the DMSO control. **P < 0.01 compared with the vehicle (DMSO). […] At 40 h after infection, cellular chromosomal DNA was purified, and the integrated proviral DNA was detected through nested Alu-PCR amplification.
The activity of HIV-1 RT was determined as previously described with some minor modifications ([66][–][68]). […] The relative levels of RT products were analyzed using the ΔΔCt-method, as described above. […]

SMILES	EC50 [1]	inhibitory effect on in vitro integrase activity [2]
Cc1[nH]c2ccc(-c3nnc(SCC(=O)N4CCCC4)o3)cc2c1C [Compound 13, 2-((5-(2,3-Dimethyl-1H-indol-5-yl)-1,3,4-oxadiazol-2-yl)thio)-1-(pyrrolidin-1-yl)ethan-1-one]	220 ± 30 nM	did not exhibit the inhibitory effect
Cc1[nH]c2ccc(-c3nnc(SCC(=O)N4CCCCC4)o3)cc2c1C [Compound 9, 2-((5-(2,3-Dimethyl-1H-indol-5-yl)-1,3,4-oxadiazol-2-yl)thio)-1-(piperidin-1-yl)ethan-1-one]	–	did not exhibit the inhibitory effect

From paper PMC11459959, “Discovery of new acetamide derivatives of 5-indole-1,3,4-oxadiazol-2-thiol as inhibitors of HIV-1 Tat-mediated viral transcription” (Antimicrobial Agents and Chemotherapy, 2024)
